Target: T1, recombinant guanylate cyclase reporter cell line (Rattus norvegicus, UniProt P19686+P20595)
T1 construct: expressed in transfected cells
T1 sequence (P19686 1-690): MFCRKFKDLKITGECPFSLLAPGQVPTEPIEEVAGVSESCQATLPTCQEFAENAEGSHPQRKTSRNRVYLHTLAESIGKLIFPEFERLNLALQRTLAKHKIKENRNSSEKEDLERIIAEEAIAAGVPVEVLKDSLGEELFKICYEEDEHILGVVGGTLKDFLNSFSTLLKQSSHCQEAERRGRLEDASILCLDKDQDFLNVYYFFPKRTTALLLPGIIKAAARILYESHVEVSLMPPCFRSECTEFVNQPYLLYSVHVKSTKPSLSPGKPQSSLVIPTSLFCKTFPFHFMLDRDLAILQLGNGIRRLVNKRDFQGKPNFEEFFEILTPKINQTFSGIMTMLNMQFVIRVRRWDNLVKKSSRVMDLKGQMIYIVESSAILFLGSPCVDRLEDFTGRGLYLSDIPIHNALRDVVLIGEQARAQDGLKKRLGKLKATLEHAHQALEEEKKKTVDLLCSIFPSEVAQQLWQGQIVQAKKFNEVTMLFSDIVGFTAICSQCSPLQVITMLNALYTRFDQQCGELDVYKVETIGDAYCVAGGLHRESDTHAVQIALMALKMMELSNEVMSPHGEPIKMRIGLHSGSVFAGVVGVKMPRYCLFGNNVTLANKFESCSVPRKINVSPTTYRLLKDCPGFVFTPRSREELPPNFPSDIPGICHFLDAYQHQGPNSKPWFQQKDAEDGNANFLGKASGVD
T1 sequence (P20595 1-619): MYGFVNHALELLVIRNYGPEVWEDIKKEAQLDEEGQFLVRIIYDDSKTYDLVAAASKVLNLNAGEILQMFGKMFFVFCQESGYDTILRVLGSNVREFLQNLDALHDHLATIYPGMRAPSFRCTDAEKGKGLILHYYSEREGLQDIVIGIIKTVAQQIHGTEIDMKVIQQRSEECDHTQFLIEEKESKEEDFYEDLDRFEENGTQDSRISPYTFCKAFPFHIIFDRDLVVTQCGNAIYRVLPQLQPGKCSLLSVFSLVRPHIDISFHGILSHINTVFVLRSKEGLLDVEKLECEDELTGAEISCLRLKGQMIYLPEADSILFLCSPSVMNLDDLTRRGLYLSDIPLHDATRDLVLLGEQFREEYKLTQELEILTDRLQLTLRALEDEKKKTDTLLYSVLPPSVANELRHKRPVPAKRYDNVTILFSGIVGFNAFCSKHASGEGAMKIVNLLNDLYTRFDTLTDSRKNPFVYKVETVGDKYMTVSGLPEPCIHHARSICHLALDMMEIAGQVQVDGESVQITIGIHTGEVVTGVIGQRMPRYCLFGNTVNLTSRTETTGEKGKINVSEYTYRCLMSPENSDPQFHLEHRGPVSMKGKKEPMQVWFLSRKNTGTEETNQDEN
Test: Effect on a recombinant guanylate cyclase reporter cell line (B-2)
Format: cell-based
Conditions: in some cases mean values for individual determinations
Description: B-2. Effect on a Recombinant Guanylate Cyclase Reporter Cell Line
The cellular effect of the inventive compounds is determined using a recombinant guanylate cyclase reporter cell line, as described in F. Wunder et al., Anal. Biochem. 339, 104-112 (2005).
Representative MEC values (MEC=minimum effective concentration) for the inventive compounds are shown in the table below (in some cases as mean values for individual determinations): […]

| MEC (minimum effective concentration) [µM] | SMILES |
| --- | --- |
| 0.3 | Cc1cc(OCc2c(F)ccc(F)c2F)n2nc(C)c(C(=O)Nc3c(C(F)(F)F)n[nH]c3C)c2c1 [Example 20, 2,5-Dimethyl-N-[5-methyl-3-(trifluoromethyl)-1H-pyrazol-4-yl]-7-[(2,3,6-trifluorobenzyl)oxy]pyrazolo[1,5-a]pyridine-3-carboxamide] |
| 1.0 | Cc1cc(OCc2c(F)ccc(F)c2F)n2nc(C)c(C(=O)NC3CC(C)(C)NC(C)(C)C3)c2c1 [Example 9, 2,5-Dimethyl-N-(2,2,6,6-tetramethylpiperidin-4-yl)-7-[(2,3,6-trifluorobenzyl)oxy]pyrazolo[1,5-a]pyridine-3-carboxamide] |
| 0.3 | Cc1cc(OCc2c(F)ccc(F)c2F)n2nc(C)c(C(=O)NCCC3(O)CCCC3)c2c1 [Example 5, N-[2-(1-Hydroxycyclopentyl)ethyl]-2,5-dimethyl-7-[(2,3,6-trifluorobenzyl)oxy]pyrazolo[1,5-a]pyridine-3-carboxamide] |
| 0.3 | Cc1cc(OCc2c(F)ccc(F)c2F)n2nc(C)c(C(=O)NC(C)c3nc(C(F)(F)F)no3)c2c1 (racemic) [Example 19, rac-2,5-Dimethyl-7-[(2,3,6-trifluorobenzyl)oxy]-N-{1-[3-(trifluoromethyl)-1,2,4-oxadiazol-5-yl]ethyl}pyrazolo[1,5-a]pyridine-3-carboxamide] |
| 3.0 | Cc1cc(OCc2c(F)ccc(F)c2F)n2nc(C)c(C(=O)NCCN3CCOCC3)c2c1 [Example 15, 2,5-Dimethyl-N-[2-(morpholin-4-yl)ethyl]-7-[(2,3,6-trifluorobenzyl)oxy]pyrazolo[1,5-a]pyridine-3-carboxamide] |
| 0.3 | Cc1cc(OCc2c(F)cccc2F)n2nc(C)c(C(=O)NCC(C)(N)CCC(F)(F)F)c2c1 (single isomer, unassigned) [Example 42, ent-N-(2-Amino-5,5,5-trifluoro-2-methylpentyl)-7-[(2,6-difluorobenzyl)oxy]-2,5-dimethylpyrazolo[1,5-a]pyridine-3-carboxamide] |
| 3.0 | Cc1cc(OCc2c(F)ccc(F)c2F)n2nc(C)c(C(=O)Nc3cnn(CCO)c3)c2c1 [Example 33, N-[1-(2-Hydroxyethyl)-1H-pyrazol-4-yl] -2,5-dimethyl-7-[(2,3,6-trifluorobenzyl)oxy]pyrazolo[1,5-a]pyridine-3-carboxamide] |

More lines, now with the values behind:

| SMILES | MEC (minimum effective concentration) [µM] |
| --- | --- |
| Cc1cc(OCc2c(F)cccc2F)n2nc(C)c(C(=O)NCC3(N)CCCCC3)c2c1 [Example 124, N-[(1-Aminocyclohexyl)methyl]-7-[(2,6-difluorobenzyl)oxy]-2,5-dimethylpyrazolo[1,5-a]pyridine-3-carboxamide] | 0.3 |
| Cc1cc(OCc2c(F)cccc2F)n2nc(C)c(C(=O)NCC(C)(N)CCF)c2c1 (racemic) [Example 48, rac-N-(2-Amino-4-fluoro-2-methylbutyl)-7-[(2,6-difluorobenzyl)oxy]-2,5-dimethylpyrazolo[1,5-a]pyridine-3-carboxamide] | 0.3 |
| CCCC(C)(N)CNC(=O)c1c(C)nn2c(OCc3c(F)cccc3Cl)cc(C)cc12 (racemic) [Example 164] | 1.0 |
| Cc1cc(OCc2c(F)cccc2F)n2nc(C)c(C(=O)NC3CCOc4ccccc43)c2c1 (racemic) [Example 87, rac-7-[(2,6-Difluorobenzyl)oxy]-N-(3,4-dihydro-2H-chromen-4-yl)-2,5-dimethylpyrazolo[1,5-a]pyridine-3-carboxamide] | 0.3 |
| CCCC(C)(N)CNC(=O)c1c(C)nn2c(OCc3c(F)cccc3F)cc(CC)cc12 (racemic) [Example 172, rac-N-(2-Amino-2-methylpentyl)-7-[(2,6-difluorobenzyl)oxy]-5-ethyl-2-methylpyrazolo[1,5-a]pyridine-3-carboxamide] | 0.3 |
| COC(=O)C12CC3CC(CC(CNC(=O)c4c(C)nn5c(OCc6c(F)cccc6F)cc(C)cc45)(C3)C1)C2 [Example 155, Methyl 3-{[({7-[(2,6-difluorobenzyl)oxy]-2,5-dimethylpyrazolo[1,5-a]pyridin-3-yl}carbonyl)amino]methyl}adamantane-1-carboxylate] | 1.0 |
| COc1ccc2c(c1)C(NC(=O)c1c(C)nn3c(OCc4c(F)cccc4F)cc(C)cc13)CCC2 (racemic) [Example 146, rac-7-[(2,6-Difluorobenzyl)oxy]-N-(7-methoxy-1,2,3,4-tetrahydronaphthalen-1-yl)-2,5-dimethylpyrazolo[1,5-a]pyridine-3-carboxamide] | 1.0 |
| Cc1cc(OCc2c(F)cccc2F)n2nc(C)c(C(=O)NC(C#N)c3ccc(Cl)cc3)c2c1 (racemic) [Example 134, rac-N-[(4-Chlorophenyl)(cyano)methyl]-7-[(2,6-difluorobenzyl)oxy]-2,5-dimethylpyrazolo[1,5-a]pyridine-3-carboxamide] | 0.3 |
| Cc1cc(OCc2c(F)cccc2F)n2nc(C3CC3)c(C(=O)NCC(C)(N)CC(F)F)c2c1 (single isomer, unassigned) [Example 56, ent-N-(2-Amino-4,4-difluoro-2-methylbutyl)-2-cyclopropyl-7-[(2,6-difluorobenzyl)oxy]-5-methylpyrazolo[1,5-a]pyridine-3-carboxamide] | 0.3 |
| Cc1cc(OCc2c(F)ccc(F)c2F)n2nc(C)c(C(=O)NC3(c4ccc(Cl)cc4)CCCC3)c2c1 [Example 31, N-[1-(4-Chlorophenyl)cyclopentyl]-2,5-dimethyl-7-[(2,3,6-trifluorobenzyl)oxy]pyrazolo[1,5-a]pyridine-3-carboxamide] | 1.0 |
| CCCc1nn2c(OCc3c(F)cccc3F)cc(C)cc2c1C(=O)NCC(C)(N)CCC (single isomer, unassigned) [Example 51, ent-N-(2-Amino-2-methylpentyl)-7-[(2,6-difluorobenzyl)oxy]-5-methyl-2-propylpyrazolo[1,5-a]pyridine-3-carboxamide] | 1.0 |
| Cc1cc(OCc2c(F)cccc2F)n2nc(C)c(C(=O)NC3CC(C)(C)C3N)c2c1 (stereo not drawn) [Example 101, N-(2-Amino-3,3-dimethylcyclobutyl)-7-[(2,6-difluorobenzyl)oxy]-2,5-dimethylpyrazolo[1,5-a]pyridine-3-carboxamide] | 3.0 |
| Cc1cc(OCc2c(F)cccc2F)n2nc(C)c(C(=O)N[C@@H]3CCNC3=O)c2c1 [Example 98, 7-[(2,6-Difluorobenzyl)oxy]-2,5-dimethyl-N-[(3R)-2-oxopyrrolidin-3-yl]pyrazolo[1,5-a]pyridine-3-carboxamide] | 3.0 |
| Cc1cc(OCc2c(F)cccc2F)n2nc(C)c(C(=O)NC3CCOc4c(C)cc(F)cc43)c2c1 (racemic) [Example 148, rac-7-[(2,6-Difluorobenzyl)oxy]-N-(6-fluoro-8-methyl-3,4-dihydro-2H-chromen-4-yl)-2,5-dimethylpyrazolo[1,5-a]pyridine-3-carboxamide] | 1.0 |

Reference: patent publication US9422285B2, “Substituted pyrazolo[1,5-A]-pyridine-3-carboxamides and use thereof” (Bayer Pharma Aktiengesellschaft, priority 2014, dated 2016)
